Consider 11 molecules from ChEMBL document CHEMBL1201862, “PubChem BioAssay data set” (2004).

Some test systems named below: A498; OVCAR-3; SK-MEL-28; DU-145; MDA-MB-435; ACHN; MDA-N; SNB-75; TK-10; KM12; LOX IMVI; NCI/ADR-RES; UACC-62; NCI-H522; HL-60; SK-OV-3; SF-295; SF-268; NCI-H226; RXF 393.
Experiment in all cases: NCI tumour cell line growth inhibition, 48 h

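Each compound was tested at five concentrations against cells in 96-well plates for 48 hours. Abbreviation: GI50, concentration required for 50% inhibition of growth.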 Activity calls are given as the source filed them. Rule as the data show it: active = GI50 up to about 1.1 µM and inactive = higher.

`COc1ccc(-c2nnc(CCCCCCCCc3nnc(-c4ccc(OC)cc4)n3N)n2N)cc1`: the GI50 is > 65.3 µM (inactive) in the assay on A498; > 100 µM (inactive) in the assay with OVCAR-3; > 100 µM (inactive) in the assay on SK-MEL-28; > 100 µM (inactive) in the assay with DU-145; > 100 µM (inactive) in the assay with MDA-MB-435; > 100 µM (inactive) in the assay with ACHN. The GI50 in the assay on MDA-N is > 100 µM (inactive); in the assay with SNB-75, 37.9 µM (inactive); with TK-10 it was > 60 µM (inactive); with KM12, > 100 µM (inactive); in the assay with LOX IMVI, > 100 µM (inactive); in the assay with NCI/ADR-RES it was > 31.6 µM (inactive). The GI50 was > 92 µM (inactive) in the assay on UACC-62; > 56.5 µM (inactive) in the assay on NCI-H522; > 100 µM (inactive) with HL-60; > 56.2 µM (inactive) with SK-OV-3; > 59.4 µM (inactive) with SF-295; > 58.2 µM (inactive) in the assay on SF-268. In addition, the GI50 with NCI-H226 is > 100 µM (inactive).
Regarding `O=C(O)CNc1ncc2c(n1)-c1ccccc1OC2`, the GI50 with OVCAR-3, in the assay on SK-MEL-28, in the assay on DU-145, in the assay with MDA-MB-435, in the assay on ACHN and with MDA-N was > 100 µM (inactive) in each case. Further, the GI50 in the assay on SNB-75, in the assay with TK-10, with KM12, in the assay on LOX IMVI, in the assay with NCI/ADR-RES and with UACC-62 was > 100 µM (inactive) each time. Besides, the GI50 was 64.3 µM (inactive) in the assay on HL-60; > 100 µM (inactive) in the assay with SK-OV-3; > 100 µM (inactive) in the assay on SF-295; > 100 µM (inactive) in the assay on SF-268; > 100 µM (inactive) in the assay on RXF 393.
As to `Cc1cc(C23OC4COC(C)(C)OC4C2OC(C)(C)O3)nc2ccccc12` (stereo not drawn), the GI50 in the assay with OVCAR-3, with SK-MEL-28, in the assay on DU-145, in the assay on MDA-MB-435, with ACHN and in the assay on MDA-N was > 100 µM (inactive) in each case. The GI50 with SNB-75, in the assay on TK-10, in the assay on KM12, with LOX IMVI, in the assay on NCI/ADR-RES and in the assay on UACC-62 was > 100 µM (inactive) throughout. The GI50 in the assay on NCI-H522 is > 100 µM (inactive); with HL-60, 33.4 µM (inactive); in the assay with SK-OV-3, > 100 µM (inactive); in the assay with SF-295, > 100 µM (inactive); in the assay with SF-268 it was > 100 µM (inactive); in the assay on RXF 393 it was > 100 µM (inactive). In the assay on NCI-H226, the GI50 was > 100 µM (inactive).
For the molecule `OC(Cc1cccc2ccccc12)CN1CCC(c2ccccc2)CC1` (stereo not drawn), the GI50 in the assay with OVCAR-3 was 15.1 µM (inactive); in the assay on SK-MEL-28, 13.4 µM (inactive); with DU-145 it was 14.9 µM (inactive); in the assay on MDA-MB-435, 15.1 µM (inactive); with ACHN, 17.1 µM (inactive); with MDA-N, 14.3 µM (inactive). In addition, the GI50 is 12.3 µM (inactive) in the assay with SNB-75; 12.8 µM (inactive) in the assay with TK-10; 14.8 µM (inactive) in the assay on KM12; 15.5 µM (inactive) in the assay on LOX IMVI; 14.9 µM (inactive) in the assay on NCI/ADR-RES; 15.3 µM (inactive) with UACC-62. Further, the GI50 in the assay with NCI-H522 was 9.48 µM (inactive); in the assay on HL-60, 16.7 µM (inactive); in the assay with SK-OV-3, 17.5 µM (inactive); in the assay with SF-295, 13.2 µM (inactive); in the assay with SF-268, 14.4 µM (inactive); in the assay on RXF 393, 10.2 µM (inactive).
Consider `COc1cccc2c1CCc1sc(CN3CCN(C)CC3)nc1-2`, for which the GI50 with A498 was 26.7 µM (inactive); in the assay on OVCAR-3 it was > 100 µM (inactive); with SK-MEL-28 it was 49.7 µM (inactive); in the assay on DU-145 it was > 100 µM (inactive); with MDA-MB-435 it was 63.5 µM (inactive); in the assay with ACHN it was > 100 µM (inactive). Further, the GI50 in the assay with MDA-N is 55.5 µM (inactive); with SNB-75, > 100 µM (inactive); in the assay with TK-10, > 100 µM (inactive); with KM12, 80.2 µM (inactive); in the assay with NCI/ADR-RES, > 100 µM (inactive); in the assay with UACC-62 it was 26.2 µM (inactive). The GI50 is 52.2 µM (inactive) with NCI-H522; > 100 µM (inactive) in the assay on SK-OV-3; 53 µM (inactive) in the assay with SF-295; > 100 µM (inactive) in the assay with SF-268; 6.84 µM (inactive) in the assay on RXF 393; 59.8 µM (inactive) in the assay on NCI-H226.
Regarding `COc1cc(/C=C/C(=O)c2ccc(NS(=O)(=O)c3cc([N+](=O)[O-])ccc3C)cc2)cc(OC)c1OC`, the GI50 is 3.15 µM (inactive) in the assay with OVCAR-3; 8.43 µM (inactive) in the assay with SK-MEL-28; 3.13 µM (inactive) with DU-145; 3.71 µM (inactive) in the assay on MDA-MB-435; 4.38 µM (inactive) in the assay with ACHN; 3.62 µM (inactive) with MDA-N. The GI50 in the assay on SNB-75 is 4.39 µM (inactive); with TK-10, 3.96 µM (inactive); in the assay with KM12, 2.62 µM (inactive); in the assay on LOX IMVI it was 3.29 µM (inactive); in the assay on NCI/ADR-RES it was 8.41 µM (inactive); with HL-60, 3.37 µM (inactive). In addition, the GI50 is 4.01 µM (inactive) in the assay on SK-OV-3, 4.61 µM (inactive) in the assay with SF-295, 2.81 µM (inactive) in the assay with RXF 393 and 2.97 µM (inactive) in the assay on NCI-H226.
In the case of `Cc1cc(C)n2c(nc3ccccc32)c1C#N`, the GI50 in the assay with A498, in the assay with OVCAR-3, in the assay on SK-MEL-28, in the assay with DU-145, in the assay on MDA-MB-435 and in the assay with ACHN was > 100 µM (inactive) in each case. In addition, the GI50 in the assay on MDA-N, in the assay on TK-10, with LOX IMVI, with NCI/ADR-RES, in the assay with UACC-62 and in the assay with HL-60 was > 100 µM (inactive) in each case. The GI50 with SK-OV-3, in the assay with SF-295, in the assay with RXF 393 and with NCI-H226 was > 100 µM (inactive) in each case.
As to `Oc1ccc(/C=N/NC(=S)Nc2cccnc2)nc1`, the GI50 in the assay with A498 is 33.7 µM (inactive); in the assay with OVCAR-3 it was 1.07 µM (active); with SK-MEL-28, 6.18 µM (inactive); in the assay with DU-145, 3.72 µM (inactive); with MDA-MB-435 it was 5.9 µM (inactive); in the assay with ACHN it was 4.76 µM (inactive). Besides, the GI50 with MDA-N was 13.4 µM (inactive); in the assay with SNB-75, 19.6 µM (inactive); with KM12, 6.71 µM (inactive); with LOX IMVI, 3.26 µM (inactive); with NCI/ADR-RES, 2.46 µM (inactive); with UACC-62, 6.97 µM (inactive). Besides, the GI50 with NCI-H522 is 1.97 µM (inactive); in the assay on HL-60, 3.76 µM (inactive); in the assay with SK-OV-3, 8.99 µM (inactive); in the assay on SF-295, 19.9 µM (inactive); with SF-268, 1.39 µM (inactive); with NCI-H226, 33.3 µM (inactive).
For `COc1cc(-c2nc3ccccn3c2/N=C/c2cc(Br)cc(Br)c2O)ccc1O`, the GI50 with OVCAR-3 is 15.6 µM (inactive); with SK-MEL-28 it was 16.6 µM (inactive); with DU-145, 27.6 µM (inactive); in the assay on MDA-MB-435, 22.4 µM (inactive); with ACHN, 48.8 µM (inactive); in the assay on MDA-N, 22.4 µM (inactive). The GI50 in the assay with SNB-75 was 24 µM (inactive); with TK-10, 23.9 µM (inactive); in the assay on KM12, 24.2 µM (inactive); in the assay on LOX IMVI it was 24 µM (inactive); in the assay on NCI/ADR-RES, 22 µM (inactive); in the assay with UACC-62 it was 27 µM (inactive). Besides, the GI50 in the assay with NCI-H522 is 23.2 µM (inactive); with HL-60, 18.2 µM (inactive); in the assay with SK-OV-3, 23.9 µM (inactive); with SF-295 it was 20.7 µM (inactive); in the assay on SF-268 it was 14.3 µM (inactive); in the assay with RXF 393, 32.9 µM (inactive). Further, the GI50 in the assay with NCI-H226 was 24.1 µM (inactive).
Turning to `O=C1N/C(=N/N=C/C(O)C(O)C(O)CO)N/C1=C\c1c[nH]c2ccccc12` (stereo not drawn), the GI50 in the assay on OVCAR-3, in the assay on SK-MEL-28, in the assay on DU-145, in the assay on MDA-MB-435, in the assay on ACHN and in the assay with MDA-N was > 100 µM (inactive) in each case. Besides, the GI50 in the assay with SNB-75, with TK-10, in the assay on KM12, in the assay on LOX IMVI, in the assay with NCI/ADR-RES and in the assay with UACC-62 was > 100 µM (inactive) in each case. Besides, the GI50 in the assay with NCI-H522, in the assay with HL-60, in the assay on SK-OV-3, with SF-295, with SF-268 and in the assay with RXF 393 was > 100 µM (inactive) each time. Further, the GI50 with NCI-H226 is > 100 µM (inactive).
Turning to `CSCCCNC(=O)c1csc(-c2csc(CCNC(=O)CNC(=O)OC(C)(C)C)n2)n1`, the GI50 with A498, in the assay on OVCAR-3, in the assay with SK-MEL-28, with DU-145, in the assay with MDA-MB-435 and in the assay on ACHN was > 100 µM (inactive) throughout. The GI50 with MDA-N, in the assay on SNB-75, in the assay on TK-10, with KM12, in the assay with LOX IMVI and with NCI/ADR-RES was > 100 µM (inactive) in each case. The GI50 in the assay with UACC-62 was 28.6 µM (inactive); in the assay with NCI-H522 it was > 100 µM (inactive); in the assay on SK-OV-3, > 100 µM (inactive); in the assay with SF-295 it was > 100 µM (inactive); in the assay on SF-268, > 100 µM (inactive); in the assay on RXF 393, > 100 µM (inactive). In the assay with NCI-H226, the GI50 is > 100 µM (inactive).
